# From patent US11603378B2, “Azole silane compound” (Atotech Deutschland GmbH, priority 2018, dated 2023)
# Legend:
# Type in all cases: physicochemical
# [1] = Solubility test: time until 50 g/L of compound is fully dissolved in glycol ether solvent; conditions: approx. 22° C., constant stirring, test carried out for 30 minutes; for t [min] DEGBE (time until fully dissolved): 50 g/L in diethylene glycol monobutyl ether; for t [min] EGBE (time until fully dissolved): 50 g/L in ethylene glycol monobutyl ether
# Description: In a solubility test, solubility in diethylene glycol monobutyl ether (DEGBE) and ethylene glycol monobutyl ether (EGBE) as solvents was tested at approximately 22° C. under constant stirring. For that, the azole silane compound of Formula (Ia), obtained in Example A), 1), and the reference compound of formula (X) were dissolved in respective samples (mixtures).
# In each solubility test the time “t” was determined until an amount of the respective compound in its highly viscous state, corresponding in each case to a concentration of 50 g/L of the azole silane compound (approximately corresponding to 5 wt.-%, based on the total weight of a respective test composition), was fully dissolved in the respective solvent. Each solubility test was carried out for 30 minutes.
# [2] = Stability test of aqueous working solution (precipitation at various pH); set-up: key: xx = strong precipitation; x = little, insignificant precipitation; 0 = no precipitation; conditions: 50° C., approx. 1 wt.-%, 250 mL/L storage solution pH 11 + 750 mL/L water
# Description: C-2ii) Aqueous Working Solution:
# In a second stability test, stability of a compound of formula (Ib) also obtained in Example A), 3) was investigated at various pH values but with lower concentration compared to C-2i.
# For that purpose, various working solutions (according to the present invention and not according to the present invention) have been prepared each comprising 250 mL/L of storage solution with pH 11 as described above under item C-2i and 750 mL/L water such that the compound of formula (Ib) was present in an total amount of approximately 1 wt.-%, based on the total weight of the respective working solution. The various pH values were obtained by adding sulfuric acid. The stability was evaluated after 14 days by carefully determining the presence of precipitates. During the stability tests, the temperature of each storage solution was kept constant at 50° C.
# [3] = Stability test of alkaline storage solution (precipitation in dependence of pH); set-up: key to precipitation, storage solution: xx = strong precipitation; x = little, insignificant precipitation; 0 = no precipitation; conditions: for precipitation, storage solution: 50° C., 4 wt.-% in 20 wt.-% water / 76 wt.-% DEGBE
# Description: C-2i) Alkaline Storage Solution: In a first stability test, stability of a compound of formula (Ib) obtained in Example A), 3) was further investigated in dependence of the pH. For that purpose, various storage solutions (according to the present invention and not according to the present invention) have been prepared each comprising 200 mL/L water (corresponding to approximately 20 wt.-%), 800 mL/L DEGBE (corresponding to approximately 76 wt.-%), and a compound of formula (Ib) in a total amount of 4 wt.-%, based on the total weight of the respective storage solution. The various pH values were obtained by adding sodium hydroxide or sulfuric acid. The stability was evaluated after 1, 7, and 15 days by carefully determining the presence of any precipitates. During the stability tests, the temperature of each storage solution was 50° C.
smiles,measurement,setting,value
CO[Si](CCCOCC(O)CSc1nnc(N)s1)(OC)OC (stereo not shown) [formula (Ia)],t [min] DEGBE (time until fully dissolved),[1],12 min
same,t [min] EGBE (time until fully dissolved),[1],10 min
CO[Si](CCCOCC(O)CSc1nnc(N)[nH]1)(OC)OC (stereo not shown) [formula (Ib)],"precipitation, working solution","[2]; pH 4, after 14 days",xx
same,"precipitation, working solution","[2]; pH 6, after 14 days",0
same,"precipitation, working solution","[2]; pH 7, after 14 days",0
same,"precipitation, working solution","[2]; pH 8, after 14 days",x
same,"precipitation, working solution","[2]; pH 10, after 14 days",xx
same,stability in DEGBE storage solution (in words),"[3]; comparatively high pH, concentrations of approximately 4 wt.-%",stable
same,"precipitation, storage solution","[3]; pH 4, 1 d",xx
same,"precipitation, storage solution","[3]; pH 4, 7 d",xx
same,"precipitation, storage solution","[3]; pH 4, 15 d",xx
same,"precipitation, storage solution","[3]; pH 7, 1 d",xx
same,"precipitation, storage solution","[3]; pH 7, 7 d",xx
same,"precipitation, storage solution","[3]; pH 7, 15 d",xx
same,"precipitation, storage solution","[3]; pH 10, 1 d",x
same,"precipitation, storage solution","[3]; pH 10, 7 d",x
same,"precipitation, storage solution","[3]; pH 10, 15 d",x
same,"precipitation, storage solution","[3]; pH 11, 1 d",0
same,"precipitation, storage solution","[3]; pH 11, 7 d",0
same,"precipitation, storage solution","[3]; pH 11, 15 d",0
same,"precipitation, storage solution","[3]; pH 12, 1 d",0
same,"precipitation, storage solution","[3]; pH 12, 7 d",0
same,"precipitation, storage solution","[3]; pH 12, 15 d",0
"CO[Si](CCCSc1nnc(N)[nH]1)(OC)OC [formula (X), reference compound]",t [min] DEGBE (time until fully dissolved),[1],25 min
same,t [min] EGBE (time until fully dissolved),[1],> 30 min
